{"source": "patent US20090118135A1", "about": "“METHODS AND COMPOUNDS FOR REGULATING APOPTOSIS” (The Burnham Institute, priority 2007, published 2009)", "data": [{"target": "T1, GST-Bfl-1 (Homo sapiens, UniProt Q16548)", "T1 construct": "lacking their C-terminal transmembrane domains (about the last 20 amino acids) (“ΔTM”); made in house; host or cells: XL-1 Blue E. coli, pGEX 4T-1", "T1 sequence (Q16548 1-155 limits assumed)": "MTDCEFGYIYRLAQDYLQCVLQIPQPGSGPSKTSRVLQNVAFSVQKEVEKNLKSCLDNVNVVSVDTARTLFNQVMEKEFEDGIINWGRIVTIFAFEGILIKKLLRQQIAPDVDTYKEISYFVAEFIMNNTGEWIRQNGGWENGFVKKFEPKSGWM", "assay": "Bfl-1/FITC-Bid BH3 competitive fluorescence polarization assay", "type": "binding", "conditions": "primary HTS hits, MLSCN library (PubChem SIDs), Table 5B", "units": {"% Activity": "%"}, "values": [{"smiles": "COc1cccc(N2CCN(Cc3ccsc3)CC2)c1", "note": "[Compound 14746122]", "% Activity": 56.1, "FRatio": 0.85}, {"smiles": "CCCC1=C(C(=O)OCC)C(c2cc(Cl)cc(OC)c2OCC(=O)OCC)NC(=O)N1", "note": "(centres unmarked) [Compound 4262430]", "% Activity": 50.9, "FRatio": 1.19}, {"smiles": "O=C1c2ccccc2C(=O)c2c1cccc2N1CCN(CCO)CC1", "note": "[Compound 17403435]", "% Activity": 56.9, "FRatio": 1.3}, {"smiles": "CN(C)c1ccc(NC(=O)CN2C(=O)CC(c3ccccc3)=Nc3ccccc32)cc1", "note": "[Compound 853473]", "% Activity": 62.6, "FRatio": 0.6}, {"smiles": "c1ccc(CSc2nnc(-c3ccco3)c(-c3ccco3)n2)cc1", "note": "[Compound 4260465]", "% Activity": 93.8, "FRatio": 0.72}, {"smiles": "Cc1ccc(-[n+]2c(-c3ccc(Br)cc3)cn3c2CCc2ccc4cccnc4c2-3)cc1", "note": "[Compound 14745910]", "% Activity": 56.2, "FRatio": 0.81}, {"smiles": "O=C(Nc1cccnc1)c1ccc(S(=O)(=O)N2CCCCCC2)cc1", "note": "[Compound 14744015]", "% Activity": 88.4, "FRatio": 0.84}, {"smiles": "COc1ccc(N2C(=O)c3cccc4cccc(c34)C2=O)nn1", "note": "[Compound 4265126]", "% Activity": 58.8, "FRatio": 0.88}, {"smiles": "Cc1ccc(OCC(=O)Nc2ccc(N3CCCC3)cc2)cc1C", "note": "[Compound 7974807]", "% Activity": 90.6, "FRatio": 0.76}, {"smiles": "Cc1ccc(CNc2ccc3c(c2)OCO3)cc1", "note": "[Compound 4257119]", "% Activity": 50.6, "FRatio": 1.2}, {"smiles": "O=C(CCCCCn1c(=S)[nH]c2ccccc2c1=O)NCc1ccc2c(c1)OCO2", "note": "[Compound 17402018]", "% Activity": 52.9, "FRatio": 1.37}, {"smiles": "CCOC(=O)N1CCN(c2cc(NCCC(=O)O)c3c4c(onc24)-c2ccccc2C3=O)CC1", "note": "[Compound 4252106]", "% Activity": 78.1, "FRatio": 0.86}, {"smiles": "Cc1cc(C)nc(Nc2ccc(N3CCCC3)cc2)n1", "note": "[Compound 4256031]", "% Activity": 108.1, "FRatio": 0.2}, {"smiles": "CC(=N)/C(C#N)=C(\\O)CSc1nc2ccccc2[nH]1", "note": "[Compound 17385704]", "% Activity": 105.8, "FRatio": 0.67}, {"smiles": "Brc1ccc2ncnc(Nc3ccc(N4CCOCC4)cc3)c2c1", "note": "[Compound 7975247]", "% Activity": 86.8, "FRatio": 0.87}, {"smiles": "CCn1c(CSc2nc3ccccc3s2)nnc1SCC(=O)c1ccc(O)c(O)c1", "note": "[Compound 17388455]", "% Activity": 74.1, "FRatio": 0.8}, {"smiles": "Cc1ccc(C)n1Cc1ccc(C(=O)O)cc1", "note": "[Compound 858431]", "% Activity": 76.8, "FRatio": 0.63}, {"smiles": "C=CCn1c(SCc2cc(=O)n3ccsc3n2)nnc1C1CCCCC1", "note": "[Compound 3716212]", "% Activity": 54.8, "FRatio": 0.6}, {"smiles": "CCOC(=O)c1ccc(NC2=CC(=O)C(=O)c3ccccc32)cc1", "note": "[Compound 14737410]", "% Activity": 89.5, "FRatio": 1.15}, {"smiles": "CCS(=O)(=O)N1Cc2ccccc2CC1C(=O)N1CCN(c2cccc(C)c2C)CC1", "note": "(centres unmarked) [Compound 3712504]", "% Activity": 54.7, "FRatio": 0.25}, {"smiles": "CCC1=NNc2cccc3c(OC)ccc1c23", "note": "[Compound 14740154]", "% Activity": 83.6, "FRatio": 1}, {"smiles": "COc1ccc2c(c1)c(=O)oc1cc(OCC(=O)NC3CCCCC3)ccc12", "note": "[Compound 14730237]", "% Activity": 78.9, "FRatio": 0.91}, {"smiles": "COc1ccc(-c2nc3n(n2)C(c2cccnc2)C(C(N)=O)=C(C)N3)cc1", "note": "(centres unmarked) [Compound 4250160]", "% Activity": 88.5, "FRatio": 0.81}, {"smiles": "O=C(CSc1n[nH]c(-c2ccccc2)n1)c1ccc(O)c(O)c1", "note": "[Compound 851690]", "% Activity": 75.1, "FRatio": 0.43}, {"smiles": "Cc1ccc(C)n1-c1cccc(C(=O)O)c1", "note": "[Compound 4257870]", "% Activity": 95.8, "FRatio": 0.65}, {"smiles": "Cc1nc2ccc(C(=O)O)cc2c2c1CC(C)S2", "note": "(centres unmarked) [Compound 4259932]", "% Activity": 54.7, "FRatio": 0.6}, {"smiles": "Cc1ccc(NC(=O)Nc2cccs2)c(Cl)c1", "note": "[Compound 14734202]", "% Activity": 66.3, "FRatio": 1.39}, {"smiles": "CC(=N)/C(C#N)=C(/O)CSc1nnc(NC(C)C)s1", "note": "[Compound 3717601]", "% Activity": 84.1, "FRatio": 0.47}, {"smiles": "Cc1cccc2cc(C(c3nnnn3C(C)(C)C)N(Cc3ccco3)CC3CCCO3)c(O)nc12", "note": "(centres unmarked) [Compound 14720806]", "% Activity": 64.5, "FRatio": 0.95}, {"smiles": "CCN1CCN(c2ccc(NC(=O)c3cccc4ncccc34)cc2)CC1", "note": "[Compound 842582]", "% Activity": 76.3, "FRatio": 0.21}, {"smiles": "COc1ccc(N2Cc3cccc(C(=O)O)c3C2=O)cc1", "note": "[Compound 7969281]", "% Activity": 113.7, "FRatio": 0.86}, {"smiles": "Cc1ccc2c(Cl)cc(Cl)c(OCC(=O)NCc3ccco3)c2n1", "note": "[Compound 14747102]", "% Activity": 56.5, "FRatio": 0.8}, {"smiles": "Nc1cc2nsnc2cc1Br", "note": "[Compound 17407909]", "% Activity": 58.5, "FRatio": 1.42}, {"smiles": "Cc1c[nH]c2cccc(OCC(O)CNC(C)(C)C)c12", "note": "(centres unmarked) [Compound 856249]", "% Activity": 52.2, "FRatio": 0.65}, {"smiles": "CCCCNC(=O)COC(=O)c1ccc(Cl)c(S(=O)(=O)N2CCCC2)c1", "note": "[Compound 16952426]", "% Activity": 54.8, "FRatio": 0.92}, {"smiles": "O=C(O)CCc1ccc(-c2cccs2)n1CCC(=O)O", "note": "[Compound 848328]", "% Activity": 74.6, "FRatio": 0.59}, {"smiles": "O=C(c1cc2c(s1)CCC2)N1CCN(c2ccccc2)CC1", "note": "[Compound 14745443]", "% Activity": 71.6, "FRatio": 0.73}, {"smiles": "O=C(Nc1ccccc1N1CCOCC1)c1cc(-c2ccco2)nc2ccccc12", "note": "[Compound 14744733]", "% Activity": 61.4, "FRatio": 0.83}, {"smiles": "CC(=N)/C(C#N)=C(/O)CSc1nnc(Nc2c(C)cccc2C)s1", "note": "[Compound 3715042]", "% Activity": 63.1, "FRatio": 0.63}, {"smiles": "O=c1c2cc(N3CCOCC3)ccc2[nH]c(=S)n1CCCN1CCCCCC1", "note": "[Compound 4251175]", "% Activity": 62.3, "FRatio": 0.65}, {"smiles": "COc1cc(CC(=O)OCC(=O)Nc2ncc(Cl)cc2Cl)cc(OC)c1OC", "note": "[Compound 3714968]", "% Activity": 54, "FRatio": 1.42}, {"smiles": "c1coc(-c2nn3c(-c4ccco4)nnc3s2)c1", "note": "[Compound 853208]", "% Activity": 60.4, "FRatio": 0.83}, {"smiles": "Cc1ccc2cccc(S(=O)(=O)Nc3ccc4c(c3)OCO4)c2n1", "note": "[Compound 4262919]", "% Activity": 80.6, "FRatio": 0.67}, {"smiles": "Oc1ccc(Nc2nc(N3CCCC3)c3ccccc3n2)cc1", "note": "[Compound 852615]", "% Activity": 96.1, "FRatio": 0.46}, {"smiles": "Cc1cc(-c2csc(N)n2)c(C)n1C", "note": "[Compound 14746541]", "% Activity": 69.5, "FRatio": 0.94}, {"smiles": "Cc1ccc(C)n1C(Cc1ccccc1)C(=O)O", "note": "(centres unmarked) [Compound 852148]", "% Activity": 82.9, "FRatio": 1.37}, {"smiles": "N#C/C(C(N)=O)=c1/ccc2c(c1)N1C3=C(CCCC3)CC3CCCCC31N=2", "note": "(centres unmarked) [Compound 856266]", "% Activity": 74.3, "FRatio": 0.62}, {"smiles": "COc1ccccc1CNC(=O)COC(=O)c1cc(-c2ccco2)nc2ccccc12", "note": "[Compound 17385737]", "% Activity": 70.8, "FRatio": 0.81}, {"smiles": "O=C(COc1ccccc1C(=O)N/N=C/c1ccc(O)c(O)c1)N/N=C/c1ccc(O)c(O)c1", "note": "[Compound 17409262]", "% Activity": 70.9, "FRatio": 0.77}]}]}
